Here are results for four compounds from patent US20250241890A1, “1,4-DIUREAS AND 1,4-DITHIOUREAS AND USES THEREOF” (Purdue Research Foundation, priority 2024, published 2025).

Entries after “also recorded” stand apart in the source; their conditions may differ.

Test [1] deals with T1, α-synuclein (α-syn) (Homo sapiens, UniProt P37840).
T1 construct: purchased rPeptide (Watkinsville, GA)
Briefly: PICUP assay of α-syn oligomer formation. Conditions: α-syn 60 μM, compound 50 μM (~molar ratio 1:1). It counts as biochemical. How it is done: Chemical and peptide source. Dimethylsulfoxide (DMSO) and thioflavin-T (ThT) were purchased from Alfa Aesar (Ward Hill, MA). Recombinant α-synuclein (α-syn) was procured from rPeptide (WatKinsville, GA). The recombinant p-tau isoform 1N4R was prepared as published previously (Fortin et al. 2021, Sui et al. 2015, Liu et al. 2020). Concerning the preparation of tau 0N4R, a bacterial expression plasmid consisting of the vector pET30a carrying a cDNA encoding the human Tau 0N4R isoform was a kind gift of Dr. Benjamin Wolozin (Boston University). E. coli stock (Rosetta BL21 E. coli (CamR) containing pET30a [0N4R tau wt] (KanR)) was grown in LB medium supplemented with kanamycin (50 μg/mL) and chloramphenicol (50 μg/mL). Protein over-expression was induced by the addition of 1 mM IPTG for ˜18 hours at 37° C., and cells were pelleted by centrifugation at 6,000 g for 15 minutes at 4° C. The cells were resuspended in lysis buffer (10 mM Hepes, pH 7.4, 50 mM NaCl, 1 mM MgCl2, 1 mM PMSF, 1× PIC, and 0.5 mM DTT) and lysed by sonication at 30 seconds “On” and 1 minute “Off” at ˜30-45% power for ˜3-5 minutes. Lysate was centrifuged at 10,000 rpm for 10 minutes at 4° C., and supernatant was transferred with 7.8 ml (total) of 3M NaCl. The lysate was incubated for 10 minutes in 80° C. water bath, then cooled for 10 minutes in an ice bath. The lysate was centrifuged at 10,000 rpm at 4° C. for 10 minutes, and the supernatant was transferred to a new tube. The supernatant was dialyzed overnight against cation exchange buffer (50 mM MES, […], 1 mM DTT, pH 6.0). The dialysate was loaded onto a HiPrep SP HP column, and proteins were eluted with a linear gradient ranging from 50 mM to 1 M NaCl. General Characterizations. ^1H and ^13C {1H} NMR spectra were recorded using a 500 MHz Bruker instrument working at a frequency of 500 MHz for ^1H and at 126 MHz for ^13C. Chemical shifts are reported in ppm using residual solvent resonances as internal reference (δ 2.50 and δ 39.51 for ^1H and ^13C in DMSO-d6, respectively). ^1H NMR data are reported as follows. b=broad, s=singlet, d=doublet, t=triplet, q=quartet, and m=multiplet. Coupling constants are given in hertz. The purity of all compounds and synthetic intermediates was judged to be 95% or better based on ^1H NMR. IR measurements were performed in a Nicolet FTIR as thin films in the Purdue Drug Discovery facility. High-resolution mass spectrometry analyses were conducted at the MSU Mass Spectrometry facility. Thioflavin fluorescence assays. Thioflavin fluorescence assays were used to monitor fibril formation of commercial recombinant α-syn at a final concentration of 2 μM and treated with control DMSO and different compounds. The recombinant α-syn obtained from rPeptide has been validated with proper quality control to confirm the monomeric state of the protein. Kinetics of fibril formation have been performed using ThT as published previously.^6, 12, 13, 24 The fluorescence emission experiments were performed with the excitation and emission wavelengths set at 440 and 485 nm, respectively, with a Synergy HT multi-mode microplate reader (BioTek, Winooski, VT). Samples were measured in three replicates. Experiments were repeated three times using different α-syn stock solutions. For each time point, arbitrary units of fluorescence were calculated from the mean values normalized against the maximum value. The percentage of fluorescence intensity at the plateau phase in Table 1 was expressed as mean #SEM. Concerning the dose response curve depicted in FIG. 2, the data were plotted using GraphPad Prism. Photo-induced Cross-linking of Unmodified Proteins (PICUP) Assay. […] Different compounds were added to the protein solution at a final concentration of 50 μM, resulting in a molar ratio of 1:1. PICUP assays were performed with the following controls: samples without light exposition, without Ru(bpy) or ammonium persulfate, and without compound (i.e., 0.125% DMSO). […]

The target in test [2] is T1, α-synuclein (α-syn). Description: Thioflavin T (ThT) fluorescence assay of α-syn fibril formation. It is filed as biochemical. The note with it: α-syn 2 μM final concentration, compounds at 100 μM, average of three replicates with SEM; read-out: % ThT intensity (100 μM), maximum ThT intensity in percentage. The procedure: Chemical and peptide source. Dimethylsulfoxide (DMSO) and thioflavin-T (ThT) were purchased from Alfa Aesar (Ward Hill, MA). Recombinant α-synuclein (α-syn) was procured from rPeptide (WatKinsville, GA). The recombinant p-tau isoform 1N4R was prepared as published previously (Fortin et al. 2021, Sui et al. 2015, Liu et al. 2020). Concerning the preparation of tau 0N4R, a bacterial expression plasmid consisting of the vector pET30a carrying a cDNA encoding the human Tau 0N4R isoform was a kind gift of Dr. Benjamin Wolozin (Boston University). E. coli stock (Rosetta BL21 E. coli (CamR) containing pET30a [0N4R tau wt] (KanR)) was grown in LB medium supplemented with kanamycin (50 μg/mL) and chloramphenicol (50 μg/mL). Protein over-expression was induced by the addition of 1 mM IPTG for ˜18 hours at 37° C., and cells were pelleted by centrifugation at 6,000 g for 15 minutes at 4° C. The cells were resuspended in lysis buffer (10 mM Hepes, pH 7.4, 50 mM NaCl, 1 mM MgCl2, 1 mM PMSF, 1× PIC, and 0.5 mM DTT) and lysed by sonication at 30 seconds “On” and 1 minute “Off” at ˜30-45% power for ˜3-5 minutes. Lysate was centrifuged at 10,000 rpm for 10 minutes at 4° C., and supernatant was transferred with 7.8 ml (total) of 3M NaCl. The lysate was incubated for 10 minutes in 80° C. water bath, then cooled for 10 minutes in an ice bath. The lysate was centrifuged at 10,000 rpm at 4° C. for 10 minutes, and the supernatant was transferred to a new tube. The supernatant was dialyzed overnight against cation exchange buffer (50 mM MES, […], 1 mM DTT, pH 6.0). The dialysate was loaded onto a HiPrep SP HP column, and proteins were eluted with a linear gradient ranging from 50 mM to 1 M NaCl. General Characterizations. ^1H and ^13C {1H} NMR spectra were recorded using a 500 MHz Bruker instrument working at a frequency of 500 MHz for ^1H and at 126 MHz for ^13C. Chemical shifts are reported in ppm using residual solvent resonances as internal reference (δ 2.50 and δ 39.51 for ^1H and ^13C in DMSO-d6, respectively). ^1H NMR data are reported as follows. b=broad, s=singlet, d=doublet, t=triplet, q=quartet, and m=multiplet. Coupling constants are given in hertz. The purity of all compounds and synthetic intermediates was judged to be 95% or better based on ^1H NMR. IR measurements were performed in a Nicolet FTIR as thin films in the Purdue Drug Discovery facility. High-resolution mass spectrometry analyses were conducted at the MSU Mass Spectrometry facility. Thioflavin fluorescence assays. […] The recombinant α-syn obtained from rPeptide has been validated with proper quality control to confirm the monomeric state of the protein. Kinetics of fibril formation have been performed using ThT as published previously.^6, 12, 13, 24 The fluorescence emission experiments were performed with the excitation and emission wavelengths set at 440 and 485 nm, respectively, with a Synergy HT multi-mode microplate reader (BioTek, Winooski, VT). Samples were measured in three replicates. Experiments were repeated three times using different α-syn stock solutions. For each time point, arbitrary units of fluorescence were calculated from the mean values normalized against the maximum value. The percentage of fluorescence intensity at the plateau phase in Table 1 was expressed as mean #SEM. Concerning the dose response curve depicted in FIG. 2, the data were plotted using GraphPad Prism. Photo-induced Cross-linking of Unmodified Proteins (PICUP) Assay. To induce oligomerization by cross-linking, α-syn (from Rpeptide, LLC) was diluted in 10 mM phosphate buffer (pH 7.4) to reach a final concentration of 50 μM. Different compounds were added to the protein solution at a final concentration of 50 μM, resulting in a molar ratio of 1:1. PICUP assays were performed with the following controls: samples without light exposition, without Ru(bpy) or ammonium persulfate, and without compound (i.e., 0.125% DMSO). […]

As for `S=C(Nc1ccc(NC(=S)Nc2ccc3cc[nH]c3c2)cc1)Nc1ccc2cc[nH]c2c1` [Compound 6, 3-(1H-indol-6-yl)-1-(4-{[(1H-indol-6-yl)carbamothioyl]amino}phenyl)thiourea], the “effect on α-syn oligomer formation (high molecular weight bands) by PICUP” value at α-synuclein (α-syn) [1] is “mediocre; also recorded: reduced slightly”. Also, at α-synuclein (α-syn) [2], the remaining activity at 100 µM worked out at 36.1%.
In the same order, the values of `O=C(Nc1ccc(NC(=O)Nc2ccc3[nH]ccc3c2)cc1)Nc1ccc2[nH]ccc2c1` [Compound 3, 3-(1H-indol-5-yl)-1-(4-{[(1H-indol-5-yl)carbamoyl]amino}phenyl)urea] are “mediocre; also recorded: reduced slightly” and 57%.
On to `O=C(Nc1ccc(NC(=O)Nc2ccc3cc[nH]c3c2)cc1)Nc1ccc2cc[nH]c2c1` [Compound 5, 3-(1H-indol-6-yl)-1-(4-{[(1H-indol-6-yl)carbamoyl]amino}phenyl)urea], for which, on α-synuclein (α-syn) [1], the “effect on α-syn oligomer formation (high molecular weight bands) by PICUP” value is listed as “mediocre; also recorded: reduced slightly”. For the same compound, the remaining activity at 100 µM at α-synuclein (α-syn) [2] was 58.7%.
In the same order, the values of `S=C(Nc1ccc(NC(=S)Nc2ccc3[nH]ccc3c2)cc1)Nc1ccc2[nH]ccc2c1` [Compound 4, 3-(1H-indol-5-yl)-1-(4-{[(1H-indol-5-yl)carbamothioyl]amino}phenyl)thiourea] are “mediocre; also recorded: reduced slightly” and 46.2%.
